Test [1] concerns GFP-14-3-3β and its binding proteins. Put plainly: GFP-14-3-3β co-IP with LC-MS/MS label-free quantification, untreated versus PP1c-treated. Further details: species or system human. As to the method: (§1) HeLa Kyoto cells expressing transiently transfected pEGFP(C1)-14-3-3β or pEGFP(C1) control plasmid, were incubated with 20 nM Calyculin A (# 9902 S, Cell Signaling Technology) for 12 min. Cells were washed twice on ice with cold PBS and after addition of 500 µL lysis buffer (100 mM NaCl, 10 mM Tris, 0.1% IGEPAL, 1 mM EDTA, 1 mM EGTA, 20 nM Calyculin A, 1x cOmplete Mini protease inhibitor cocktail (Sigma), 1 mM DTT, 1 mM MnCl2) cells were scraped from plates, lysed by 10 pushes through an injection needle (21 G, BD) and the insoluble fraction was pelleted by centrifugation (10 min, 10^4 rcf, 4 °C). Supernatants were then subjected to incubation with 1 µM recombinant phosphatase or buffer for 1 h at 30 °C. Next, we subjected samples to immunoprecipitation using α-GFP nanobodies covalently coupled to agarose beads (2 h, 4 °C, obtained from the EMBL PEPcore Core Facility). Beads were then washed three times with lysis buffer and samples were eluted in 1x LDS sample buffer (Thermo Fisher Scientific) by heating to 70 °C for 10 min.
(§2) The samples were then reduced with 25 mM dithiothreitol (10 min at 70 °C) and alkylated with 55 mM chloroacetamide (room temperature, 30 min, in the dark). Proteins were run on a precast 4–12% NuPAGE gel (ThermoFisher Scientific) for about 1 cm to concentrate the sample prior to in-gel tryptic digestion, which was performed according to the standard procedures. The peptides obtained were dried to completeness and resuspended in 12 µL of buffer A (0.1% FA), and 5 µL of sample were injected per MS measurement. The experiment was carried out in three independent replicates.
(§3) The samples were analyzed by LC-MS/MS on a Dionex Ultimate 3000 nano-HPLC coupled online to a Fusion Lumos Tribrid mass spectrometer (Thermo Fisher Scientific). Peptides were delivered to a trap column (75 µm × 2 cm, packed in-house with 5 µm C18 resin; Reprosil PUR AQ, Dr. Maisch) and washed using 0.1% FA at a flow rate of 5 µL/min for 10 min. Subsequently, peptides were transferred to an analytical column (75 µm × 45 cm, packed in-house with 3 µm C18 resin; Reprosil Gold) applying a flow rate of 300 nL/min and separated using a 60 min linear gradient from 4% to 32% LC solvent B (0.1% FA, 5% DMSO in ACN) in LC solvent A (0.1% FA in 5% DMSO). The eluate from the analytical column was sprayed via a stainless steel emitter (Thermo Fisher Scientific) at a source voltage of 2.1 kV into the mass spectrometer. The transfer capillary was heated to 275 °C. The Fusion Lumos was operated in positive ionization mode and data-dependent acquisition (DDA), automatically switching between MS1 and MS2 spectrum acquisition. Full scan MS1 spectra were recorded in the Orbitrap from 360 to 1300 m/z at a resolution of 60k (automatic gain control (AGC) target value of 4e5 charges, maximum injection time (maxIT) of 50 ms). Up to 20 peptide precursors were isolated (isolation window, 1.7 m/z; maximum injection time, 25 ms; and AGC value, 1e5), fragmented by high-energy collision-induced dissociation (HCD) using 30% normalized collision energy (NCE), and analyzed at a resolution of 15k in the Orbitrap. Precursor ions that were singly charged, unassigned, or with charge states >6+ were excluded. The dynamic exclusion duration of fragmented precursor ions was 20 s.
(§4) Peptide and protein identification and LFQ were performed using MaxQuant software (version 1.6.1.0)[64] by searching the data against all canonical protein sequences as annotated in the Swissprot reference database (human proteins only, 20193 entries, downloaded 22 March 2016, internally annotated with PFAM domains) using the embedded search engine Andromeda[65]. The MaxQuant search was performed using two variable modifications; oxidation of methionine and N-terminal protein acetylation. Carbamidomethylation on cysteines was specified as a fixed modification. Trypsin (Trypsin/P) was specified as the proteolytic enzyme with up to two allowed missed cleavage sites.

The subject of a further test is GFP-14-3-3β. In words: GFP-14-3-3β co-IP with LC-MS/MS, untreated GFP-14-3-3β versus GFP control (14-3-3 interactome). It is filed as binding, human. As to the method:
as §1, §2, §3, §4

Setting [2] is: pairwise comparison PP1 vs untreated.
Where [3] appears, read: pairwise comparison untreated vs GFP.
Setting [4] is: pairwise comparison PP1 vs untreated, student's t-test, 3 replicates each, LC-MS/MS label-free quantification.
[5] abbreviates: pairwise comparison untreated GFP-14-3-3β vs GFP, student's t-test, 3 replicates each, LC-MS/MS label-free quantification.
The mark [6] stands for this setting: PP1 vs untreated, LFQ intensities, replicates 1-3.
[7] abbreviates: untreated vs GFP, LFQ intensities, replicates 1-3.
[8] abbreviates: GFP-14-3-3β co-IP LC-MS/MS, PP1 vs untreated, student's t-test, label-free quantification, 3 replicates each.
[9] abbreviates: GFP-14-3-3β co-IP LC-MS/MS, untreated vs GFP, student's t-test, label-free quantification, 3 replicates each.
The mark [10] stands for this setting: log2 difference, pairwise comparison PP1 vs untreated, label-free quantification, 3 replicates each.
Setting [11] is: log2 difference, pairwise comparison untreated vs GFP, label-free quantification, 3 replicates each.
Where [12] appears, read: PP1 vs untreated, LFQ intensities, 3 replicates each.
The mark [13] stands for this setting: untreated vs GFP, LFQ intensities, 3 replicates each.

Consider EIF4G1, for which the “Difference (log2), PP1 vs untreated” value in test [1] (setting [2]) was determined as 0.2022 log2. For the same substance, in the test on GFP-14-3-3β (setting [3]), the “Difference (log2), untreated vs GFP” value is given as 0.6525 log2.

Take WWC2: in test [1] (setting [4]), the “Difference (log2), PP1 vs untreated” value was -3.571 log2. In addition, the “Difference (log2), untreated vs GFP” value in the test on GFP-14-3-3β (setting [5]) stood at 4.409 log2.

For H2AFY, in test [1] (setting [6]), the “Difference (log2), PP1 vs untreated” value is -1.711 log2. In addition, in the test with GFP-14-3-3β (setting [7]), the “Difference (log2), untreated vs GFP” value came out at 1.914 log2.

As to TUBB4B, the “Difference (log2), PP1 vs untreated” value in test [1] (setting [8]) is -0.5591 log2. In the test with GFP-14-3-3β (setting [9]), the “Difference (log2), untreated vs GFP” value was -0.8458 log2.

Turning to CSE1L, the “Difference (log2), PP1 vs untreated” value in test [1] (setting [2]) is given as 0.2293 log2. For the same substance, the “Difference (log2), untreated vs GFP” value with GFP-14-3-3β (setting [3]) is listed as -0.7283 log2.

Consider DSP, for which, in test [1] (setting [10]), the “Difference (log2), PP1 vs untreated” value worked out at 4.203. Moreover, the “Difference (log2), untreated vs GFP” value in the test on GFP-14-3-3β (setting [11]) was -0.252.

As to TOMM40, the “Difference (log2), PP1 vs untreated” value in test [1] (setting [2]) is given as -0.1328 log2. Moreover, the “Difference (log2), untreated vs GFP” value in the test on GFP-14-3-3β (setting [3]) amounted to 1.138 log2.

In the case of PCM1, the “Difference (log2), PP1 vs untreated” value in test [1] (setting [10]) was 2.301. Further, the “Difference (log2), untreated vs GFP” value in the test on GFP-14-3-3β (setting [11]) is -0.166.

Turning to SRSF3, in test [1] (setting [4]), the “Difference (log2), PP1 vs untreated” value is on record as -2.154 log2. In addition, the “Difference (log2), untreated vs GFP” value with GFP-14-3-3β (setting [5]) amounted to 2.78 log2.

Regarding KARS, the “Difference (log2), PP1 vs untreated” value in test [1] (setting [8]) is reported as -0.3502 log2. Moreover, the “Difference (log2), untreated vs GFP” value in the test with GFP-14-3-3β (setting [9]) is given as -0.1156 log2.

EMC1: the “Difference (log2), PP1 vs untreated” value in test [1] (setting [10]) stood at 1.575. In the test with GFP-14-3-3β (setting [11]), the “Difference (log2), untreated vs GFP” value was -0.5374.

For PPL, the “Difference (log2), PP1 vs untreated” value in test [1] (setting [6]) was -1.031 log2. The “Difference (log2), untreated vs GFP” value in the test with GFP-14-3-3β (setting [7]) is reported as -0.5694 log2.

Turning to LMO7, in test [1] (setting [4]), the “Difference (log2), PP1 vs untreated” value is given as -2.202 log2. Further, the “Difference (log2), untreated vs GFP” value in the test with GFP-14-3-3β (setting [5]) is reported as 0.9984 log2.

Regarding RNF5, the “Difference (log2), PP1 vs untreated” value in test [1] (setting [8]) is on record as -0.2892 log2. Further, the “Difference (log2), untreated vs GFP” value with GFP-14-3-3β (setting [9]) worked out at 0.3906 log2.

For the substance EFTUD2, in test [1] (setting [8]), the “Difference (log2), PP1 vs untreated” value is on record as -0.7202 log2. The “Difference (log2), untreated vs GFP” value with GFP-14-3-3β (setting [9]) stood at 2.59 log2.

LAMA5: the “Difference (log2), PP1 vs untreated” value in test [1] (setting [12]) came to 0.4607 log2. For the same substance, in the test on GFP-14-3-3β (setting [13]), the “Difference (log2), untreated vs GFP” value is recorded as -1.96 log2.

As for NUP188, the “Difference (log2), PP1 vs untreated” value in test [1] (setting [8]) is recorded as -0.6223 log2. For the same substance, in the test on GFP-14-3-3β (setting [9]), the “Difference (log2), untreated vs GFP” value worked out at 1.172 log2.

Turning to YAP1, the “Difference (log2), PP1 vs untreated” value in test [1] (setting [4]) was -2.787 log2. Moreover, the “Difference (log2), untreated vs GFP” value in the test with GFP-14-3-3β (setting [5]) is reported as 8.338 log2.

APC: in test [1] (setting [2]), the “Difference (log2), PP1 vs untreated” value is given as 0.0453 log2. In addition, in the test with GFP-14-3-3β (setting [3]), the “Difference (log2), untreated vs GFP” value is 0.7989 log2.

Regarding SYNCRIP, the “Difference (log2), PP1 vs untreated” value in test [1] (setting [2]) is listed as 0.2079 log2. In addition, in the test with GFP-14-3-3β (setting [3]), the “Difference (log2), untreated vs GFP” value turned out to be 0.5804 log2.

Take SMARCA5: the “Difference (log2), PP1 vs untreated” value in test [1] (setting [6]) is recorded as -1.929 log2. For the same substance, in the test on GFP-14-3-3β (setting [7]), the “Difference (log2), untreated vs GFP” value was 3.229 log2.

For the substance CD109, the “Difference (log2), PP1 vs untreated” value in test [1] (setting [12]) came out at 0.7153 log2. The “Difference (log2), untreated vs GFP” value in the test on GFP-14-3-3β (setting [13]) is listed as -1.476 log2.

Consider TIMM50, for which, in test [1] (setting [8]), the “Difference (log2), PP1 vs untreated” value is given as -0.2989 log2. In addition, in the test with GFP-14-3-3β (setting [9]), the “Difference (log2), untreated vs GFP” value amounted to 1.085 log2.

Turning to SPTAN1, the “Difference (log2), PP1 vs untreated” value in test [1] (setting [4]) is recorded as -2.033 log2. Besides, the “Difference (log2), untreated vs GFP” value in the test with GFP-14-3-3β (setting [5]) was determined as 0.5148 log2.

Regarding PABPC1, the “Difference (log2), PP1 vs untreated” value in test [1] (setting [2]) is on record as 0.26 log2. In addition, in the test on GFP-14-3-3β (setting [3]), the “Difference (log2), untreated vs GFP” value was 0.5949 log2.

Consider LARP4B, for which the “Difference (log2), PP1 vs untreated” value in test [1] (PP1 vs untreated, label-free quantification) came to 0.8043 log2. In the test on GFP-14-3-3β (untreated vs GFP, label-free quantification), the “Difference (log2), untreated vs GFP” value worked out at 0.9646 log2.

In the case of TRIM25, the “Difference (log2), PP1 vs untreated” value in test [1] (setting [2]) was 0.1738 log2. Besides, the “Difference (log2), untreated vs GFP” value with GFP-14-3-3β (setting [3]) was -0.2184 log2.
